According to US12054487B2, “Muscarinic acetylcholine M1 receptor antagonists” (Contineum Therapeutics, Inc., priority 2018, dated 2024):

Experiments:
Type in all cases: cell-based
human M1 receptor = molecular target: T1, human M1 receptor (Homo sapiens, UniProt P11229); assay: In vitro functional assay of muscarinic acetylcholine receptor activity (aequorin calcium flux, antagonist mode vs EC80 acetylcholine), M1; details: CHO-K1 cells stably expressing human M1 receptor with Aequorin; decrease in EC80 acetylcholine response
T1 construct: host or cells: CHO-K1
T1 sequence (P11229 1-460): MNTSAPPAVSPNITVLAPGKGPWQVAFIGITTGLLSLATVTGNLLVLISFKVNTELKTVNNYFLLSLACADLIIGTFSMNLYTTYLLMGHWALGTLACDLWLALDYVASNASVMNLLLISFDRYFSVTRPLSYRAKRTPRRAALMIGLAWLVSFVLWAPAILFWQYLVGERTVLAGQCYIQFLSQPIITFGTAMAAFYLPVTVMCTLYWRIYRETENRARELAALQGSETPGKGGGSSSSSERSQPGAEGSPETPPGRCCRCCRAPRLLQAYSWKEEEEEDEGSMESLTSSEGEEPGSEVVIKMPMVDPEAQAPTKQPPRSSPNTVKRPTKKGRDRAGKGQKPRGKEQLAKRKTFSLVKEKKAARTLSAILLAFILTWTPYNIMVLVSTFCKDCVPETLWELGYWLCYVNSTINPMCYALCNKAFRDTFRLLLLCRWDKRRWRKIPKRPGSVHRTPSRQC
Method in brief: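 Antagonism at M1 was measured as a concentration-dependent reduction of the EC80 acetylcholine-evoked aequorin luminescence, from which IC50 was derived. Human M1 CHO-K1 aequorin cells were first loaded with 5 uM coelenterazine h for 4 h and exposed to compound for 30 min at room temperature.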

M3 = M3 (Homo sapiens, UniProt P20309); assay: In vitro functional assay of muscarinic acetylcholine receptor activity, M3; details: antagonist activity; M3 method not separately described
M2 = molecular target: T2, M2 (Homo sapiens, UniProt P08172); assay: In vitro functional assay of muscarinic acetylcholine receptor activity, M2; details: antagonist activity; M2 method not separately described
T2 sequence (P08172 1-466): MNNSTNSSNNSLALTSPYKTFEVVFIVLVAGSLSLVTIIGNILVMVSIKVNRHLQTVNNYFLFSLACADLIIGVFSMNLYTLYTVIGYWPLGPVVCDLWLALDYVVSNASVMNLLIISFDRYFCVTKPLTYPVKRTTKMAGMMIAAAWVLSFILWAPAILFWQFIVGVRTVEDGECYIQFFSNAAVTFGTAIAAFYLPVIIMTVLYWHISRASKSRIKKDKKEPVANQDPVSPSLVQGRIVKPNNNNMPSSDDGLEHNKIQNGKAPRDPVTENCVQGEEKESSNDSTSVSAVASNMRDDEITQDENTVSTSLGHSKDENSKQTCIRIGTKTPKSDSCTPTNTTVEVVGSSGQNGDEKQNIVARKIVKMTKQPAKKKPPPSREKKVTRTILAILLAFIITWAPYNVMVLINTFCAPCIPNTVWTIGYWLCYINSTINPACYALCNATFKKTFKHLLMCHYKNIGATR

M3, sequence (P20309 whole entry): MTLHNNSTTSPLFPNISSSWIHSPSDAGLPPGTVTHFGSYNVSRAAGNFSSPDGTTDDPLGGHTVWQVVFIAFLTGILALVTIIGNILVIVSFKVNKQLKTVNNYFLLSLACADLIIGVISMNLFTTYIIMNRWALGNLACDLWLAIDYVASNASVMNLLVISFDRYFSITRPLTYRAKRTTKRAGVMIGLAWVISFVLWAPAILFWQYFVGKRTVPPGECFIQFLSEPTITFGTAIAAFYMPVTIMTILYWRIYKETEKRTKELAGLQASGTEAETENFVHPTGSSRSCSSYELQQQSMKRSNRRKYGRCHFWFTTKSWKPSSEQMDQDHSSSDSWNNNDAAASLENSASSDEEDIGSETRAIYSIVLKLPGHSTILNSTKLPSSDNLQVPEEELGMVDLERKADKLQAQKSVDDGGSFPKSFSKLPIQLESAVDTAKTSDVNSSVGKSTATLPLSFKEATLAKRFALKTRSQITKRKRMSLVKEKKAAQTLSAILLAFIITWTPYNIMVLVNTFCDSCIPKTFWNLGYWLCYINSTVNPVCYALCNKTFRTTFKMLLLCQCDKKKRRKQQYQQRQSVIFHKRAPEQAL

Compound	IC50 (human M1 receptor)	IC50 (M3)	IC50 (M2)
COCc1ccc(N2CCN3C(=O)[C@@H](CCCc4cccc5ncnn45)C[C@H]3C2)nc1 [Example 49, (7S,8aS)-7-(3-([1,2,4]triazolo[1,5-a]pyridin-5-yl)propyl)-2-(5-(methoxymethyl)pyridin-2-yl)hexahydropyrrolo[1,2-a]pyrazin-6(2H)-one]	< 100 nM	1000 to 10000 nM	1000 to 10000 nM
O=C1[C@@H](CCCc2cccc3ncsc23)C[C@@H]2CN(c3ccncc3F)CCN12 [Example 7, (7S,8aR)-7-(3-(benzo[d]thiazol-7-yl)propyl)-2-(3-fluoropyridin-4-yl)hexahydropyrrolo[1,2-a]pyrazin-6(2H)-one]	1000 to 10000 nM	> 10000 nM	1000 to 10000 nM
O=C1[C@@H](CCCc2cccc3ncsc23)C[C@H]2CN(c3ccccn3)CCN12 [Example 27, (7S,8aS)-7-(3-(benzo[d]thiazol-7-yl)propyl)-2-(pyridin-2-yl)hexahydropyrrolo[1,2-a]pyrazin-6(2H)-one]	100 to 1000 nM	1000 to 10000 nM	> 10000 nM
N#Cc1ccc(N2CCN3C(=O)[C@@H](CCCc4cccc5c4CCO5)C[C@H]3C2)nc1 [Example 19, 6-((7S,8aS)-7-(3-(2,3-dihydrobenzofuran-4-yl)propyl)-6-oxohexahydropyrrolo[1,2-a]pyrazin-2(1H)-yl)nicotinonitrile]	< 100 nM	1000 to 10000 nM	100 to 1000 nM
Cc1cc(N2CCN3C(=O)C(CCCc4cccc5ncnn45)C[C@H]3C2)ncc1F (mixture of isomers) [Example 42, (7S,8aS)-7-(3-([1,2,4]triazolo[1,5-a]pyridin-5-yl)propyl)-2-(5-fluoro-4-methylpyridin-2-yl)hexahydropyrrolo[1,2-a]pyrazin-6(2H)-one]	> 10000 nM	> 10000 nM	1000 to 10000 nM
O=C1[C@@H](CCCc2c(F)ccn3ncnc23)C[C@H]2CN(c3ccc(F)cn3)CCN12 [Example 78, (7S,8aS)-7-(3-{7-fluoro-[1,2,4]triazolo[1,5-a]pyridin-8-yl}propyl)-2-(5-fluoropyridin-2-yl)-octahydropyrrolo[1,2-a]pyrazin-6-one]	< 100 nM	1000 to 10000 nM	1000 to 10000 nM
Cc1ncc(N2CCN3C(=O)C(CCCc4cccc5ncnn45)C[C@H]3C2)cc1F (mixture of isomers) [Example 43, (7S,8aS)-7-(3-([1,2,4]triazolo[1,5-a]pyridin-5-yl)propyl)-2-(5-fluoro-6-methylpyridin-3-yl)hexahydropyrrolo[1,2-a]pyrazin-6(2H)-one]	1000 to 10000 nM	1000 to 10000 nM	1000 to 10000 nM
